Assays:
Plasmodium = conditions: cited from earlier work
K562 = conditions: cited from earlier work
A2780 = conditions: cited from earlier work
fungi = conditions: cited from earlier work
[1] = system: cytochrome P450 1A isoenzyme; conditions: cited from earlier work
lymphangiogenesis = conditions: experimental mouse lymphedema models; cited from earlier work
LEC = experiment: Sprouting assay (LEC-coated microcarriers in collagen); assay type: cell-based, human; conditions: 24 hours
Experimental: To investigate cell sprouting, cytodex microcarriers were coated with LECs (Schulz et al. (2012) Phenotype-based high-content chemical library screening identifies statins as inhibitors of in vivo lymphangiogenesis. Proc Natl Acad Sci USA 109, E2665-2674). Then, the microcarriers were embedded in a collagen solution and media containing 0.1% DMSO, 20 ng/ml VEGF-A, or different concentrations of the IG extract, its subfractions or iridals were added for 24 hours. The induced sprouts were imaged at 4× magnification (Molecular Devices ImageXpress Micro HCS microscope MD2, Photometrics CoolSNAP HQ camera, Photometrics, Tucson, AZ, USA). Image analysis was performed using ImageJ64 and the number of sprouts per microcarrier was counted and plotted. Three replicates per condition were performed.

[2] = system: guinea pig mesenteric lymphatic vessels; experiment: Ex vivo lymphatic contractility assay
Text: Guinea pigs (7-15 days of age) were killed by decapitation during deep anaesthesia induced by inhalation of isoflurane. The small intestine with its attached mesentery was rapidly dissected and placed in a physiological saline solution (PSS) of the following composition (mM): CaCl2, 2.5; KCl, 5; MgCl2, 2; NaCl, 120; NaHCO3, 25; NaH2PO4, 1; glucose, 11. The pH was maintained at 7.4 by constant bubbling with 95% O2/5% CO2. […]
The organ bath was then mounted on the stage of an inverted microscope and continuously superfused at a flow rate of 3 ml/min with PSS heated to 36° C. […] A custom-written MatLab program detected vessel diameter changes on the video image and recorded them as a function of time, allowing measurement of frequency and amplitude of contractions. Decreases in vessel diameter greater than 50% of the diastolic diameter were counted as contractions. Preparations were allowed a 30 min equilibration period prior to drug application during which pumping was assessed. […] A 5 min control period of contractile activity was recorded prior to a 1 to 5 min application of iripallidal and effects on vessel contraction frequency were assessed during the ten subsequent minutes.

Molecule: CC(C)=CCC/C(C)=C/CC/C(C)=C/CC[C@@]1(C)[C@H](CCCO)/C(=C(/C)C=O)CC[C@]1(C)O [Iridal]
- antiplasmodial activity (Plasmodium): antiplasmodial activity
- activity on human tumor cell line (K562): interesting activity on two human tumor cell lines
- activity on human tumor cell line (A2780): interesting activity on two human tumor cell lines
- antifungal activity (fungi): no antifungal activity

Molecule: iriflogenin
- inhibition of cytochrome P450 1A isoenzyme [1]: potent inhibitors

Molecule: CC1=C(/C=C/C(C)=C\C=C\C(C)=C\C(=O)O)C(C)(C)CCC1 [9-cis retinoic acid]
- lymphangiogenesis (lymphangiogenesis): promote lymphangiogenesis

Molecule: C=C1CC[C@H](C)C(C)(C)[C@@H]1CC/C(C)=C/CC[C@@]1(C)[C@H](CCCO)/C(=C(/C)C=O)CC[C@]1(C)O [γ-irigermanal]
- Minimal effective concentration in sprouting assay (LEC): 0.01 µM

Molecule: COc1cc(-c2coc3cc(O)c(OC)c(O)c3c2=O)cc(O)c1OC [irigenin]
- inhibition of cytochrome P450 1A isoenzyme [1]: potent inhibitors

Molecule: CC1=CC[C@H](C)C(C)(C)[C@@H]1/C=C/C(C)=C/CC[C@@]1(CO)[C@H](CCCO)/C(=C(/C)C=O)CC[C@]1(C)O [Iripallidal]
- Minimal effective concentration in sprouting assay (LEC): 0.03 µM
- vessels with small, but significant increase in contraction frequency ([2]; 10 μM): 5 out of 6
- vessels with small, but significant increase in contraction frequency ([2]; 30 μM (data not shown)): 4 out of 4

Molecule: CC(C)=CCC/C(C)=C/CC(O)/C(C)=C/CC[C@@]1(C)[C@H](CCCO)/C(=C(\C)C=O)CC[C@]1(C)O (some centres unmarked) [Iridobelamal A]
- Minimal effective concentration in sprouting assay (LEC): 3 µM

Molecule: O=c1c(-c2ccc(O)cc2)coc2cc3c(c(O)c12)OCO3 [irilone]
- inhibition of cytochrome P450 1A isoenzyme [1]: potent inhibitors

Molecule: Irisgermanical C
- Minimal effective concentration in sprouting assay (LEC): 1 µM

Molecule: C=C1CC[C@H](C)C(C)(C)[C@@H]1/C=C/C(C)=C/CC[C@@]1(CO)[C@H](CCCO)/C(=C(/C)C=O)CC[C@]1(C)O [Iriflorental]
- Minimal effective concentration in sprouting assay (LEC): 0.03 µM

Molecule: Cis isomer of α-dehydroirigermanal
- Minimal effective concentration in sprouting assay (LEC): 0.01 µM

Molecule: Irigermanone
- Minimal effective concentration in sprouting assay (LEC): 10 µM
